Laboratory results taken from patent US9290515B2, “Cephem derivative having catechol group” (SHIONOGI & CO., LTD., priority 2011, dated 2016).
Converted amounts (≈) assume the structure as drawn. Like-named read-outs stand apart in the source and are kept apart here.

Columns and labels:
Format in all cases: cell-based
[1] = tested on: E. coli ATCC BAA-196_TEM-10; test: MIC by broth microdilution (CLSI), E. coli ATCC BAA-196; conditions: Escherichia coli
Description: (§1) Measurement of a minimum growth inhibition concentration (MIC: μg/mL) was performed according to CLSI (Clinical and Laboratory Standards Institute) method, by broth microdilution method, using an inoculation microbe amount of 10000 cfu/well and cation-adjusted Mueller Hinton broth containing human-derived 20 μM apo-transferrin as a test medium.

[2] = tested on: K. pneumoniae ATCC 700603_SHV18; test: MIC by broth microdilution (CLSI), K. pneumoniae ATCC 700603; conditions: Klebsiella pneumoniae
Description: as §1

P. aeruginosa SR24 = test: MIC by broth microdilution (CLSI), P. aeruginosa SR24; conditions: Pseudomonas aeruginosa
Description: as §1

[3] = tested on: P. aeruginosa SR27001(MDRP, IMP-1+); test: MIC by broth microdilution (CLSI), P. aeruginosa SR27001; conditions: Pseudomonas aeruginosa, read-out: minimum growth inhibition concentration (MIC)
Description: as §1

[4] = tested on: P. aeruginosa SR27060(metallo); test: MIC by broth microdilution (CLSI), P. aeruginosa SR27060; conditions: Pseudomonas aeruginosa; P. aeruginosa SR27060, IMP-1, MBL producing carbapenem-resistant strain; 10000 cfu/well; cation-adjusted Mueller Hinton broth with 20 μM human apo-transferrin; read-out: minimum growth inhibition concentration (MIC)
Description: as §1

[5] = ATCCBAA196, E. coli ATCC BAA-196, TEM-10, ESBL producing strain, 10000 cfu/well, cation-adjusted Mueller Hinton broth with 20 μM human apo-transferrin, read-out: minimum growth inhibition concentration (MIC)
[6] = ATCC700603, K. pneumoniae ATCC 700603, SHV-18, ESBL producing strain, 10000 cfu/well, cation-adjusted Mueller Hinton broth with 20 μM human apo-transferrin, read-out: minimum growth inhibition concentration (MIC)
[7] = P. aeruginosa SR24, Ceftazidime-sensitive strain, 10000 cfu/well, cation-adjusted Mueller Hinton broth with 20 μM human apo-transferrin, read-out: minimum growth inhibition concentration (MIC)
[8] = P. aeruginosa SR27001, MDRP, IMP-1, MBL producing carbapenem-resistant strain, 10000 cfu/well, cation-adjusted Mueller Hinton broth with 20 μM human apo-transferrin

Row | MIC [1, 5] [mg/L] | MIC [2, 6] [mg/L] | MIC (P. aeruginosa SR24; [7]) [mg/L] | MIC [3, 8] [mg/L] | SMILES | MIC [4] [mg/L] | MIC ([1]; ATCCBAA196, read-out: minimum growth inhibition concentration (MIC)) [mg/L] | MIC ([2]; ATCC700603, read-out: minimum growth inhibition concentration (MIC)) [mg/L] | MIC (P. aeruginosa SR24; SR24, read-out: minimum growth inhibition concentration (MIC)) [mg/L] | MIC [3] [mg/L]
1 | 0.125 (≈ 0.159 µM) | 1 (≈ 1.27 µM) | 0.25 (≈ 0.317 µM) | 2 (≈ 2.54 µM) | NCC[N+]1(CC2=C(C(=O)[O-])N3C(=O)[C@@H](NC(=O)/C(=N\OC(CNC(=O)c4ccc(O)c(O)c4Cl)C(=O)O)c4nc(N)sc4Cl)[C@H]3SC2)CCCC1 (some centres unmarked) [Compound I-16] | – | – | – | – | –
2 | 8 (≈ 12.1 µM) | – | 0.5 (≈ 0.756 µM) | – | NCC[N+]1(CC2=C(C(=O)[O-])N3C(=O)[C@@H](NC(=O)/C(=N\OCc4ccc(O)c(O)c4C(=O)O)c4csc(N)n4)[C@H]3SC2)CCCC1 [Compound I-19] | – | – | – | – | –
3 | 1 | 0.5 | 0.5 | 16 | Nc1nc(/C(=N/OC(CNC(=O)c2ccc(O)c(O)c2Cl)C(=O)[O-])C(=O)N[C@@H]2C(=O)N3C(C(=O)[O-])=C(C[N+]45CCCC4CCC5)CS[C@H]23)cs1.[Na+] (some centres unmarked) [Compound I-24] | – | – | – | – | –
4 | 2 | 1 | 0.5 | 4 | Nc1nc(/C(=N/OC(CNC(=O)c2ccc(O)c(O)c2Cl)C(=O)[O-])C(=O)N[C@@H]2C(=O)N3C(C(=O)[O-])=C(C[N+]4(CCNC(=O)CC[C@H](N)C(=O)O)CCCC4)CS[C@H]23)cs1.[Na+] (some centres unmarked) [Compound I-25] | – | – | – | – | –
5 | – | – | – | – | C[N+]1(CC2=C(C(=O)[O-])N3C(=O)[C@@H](NC(=O)/C(=N\OC(CNC(=O)c4ccc(O)c(O)c4Cl)C(=O)[O-])c4csc(N)n4)[C@H]3SC2)[C@@H]2CC[C@H]1C[C@@H](NC(=O)CC[C@H](N)C(=O)O)C2.[Na+] (some centres unmarked) [Compound I-26] | – | 1 | 1 | 1 | 4
6 | 2 | 0.5 | 0.25 | 4 | Nc1nc(/C(=N/OC(CNC(=O)c2ccc(O)c(O)c2Cl)C(=O)[O-])C(=O)N[C@@H]2C(=O)N3C(C(=O)[O-])=C(C[N+]4(CCNC(=O)C[C@@H](N)CC(=O)O)CCCC4)CS[C@H]23)cs1.[Na+] (some centres unmarked) [Compound I-27] | – | – | – | – | –
7 | 0.5 | 1 | 0.25 | 8 | Nc1nc(/C(=N/OC(CNC(=O)c2ccc(O)c(O)c2Cl)C(=O)[O-])C(=O)N[C@@H]2C(=O)N3C(C(=O)[O-])=C(C[N+]45CCCC4CCC5)CS[C@H]23)c(Cl)s1.[Na+] (some centres unmarked) [Compound I-28] | – | – | – | – | –
8 | 0.5 | 1 | 0.5 | 2 | Nc1nc(/C(=N/OC(CNC(=O)c2ccc(O)c(O)c2Cl)C(=O)[O-])C(=O)N[C@@H]2C(=O)N3C(C(=O)[O-])=C(C[N+]4(CCNC(=O)CC[C@H](N)C(=O)O)CCCC4)CS[C@H]23)c(Cl)s1.[Na+] (some centres unmarked) [Compound I-29] | – | – | – | – | –
9 | 0.5 | 2 | 0.25 | 8 | Nc1nc(/C(=N/OC(CNC(=O)c2ccc(O)c(O)c2Cl)C(=O)[O-])C(=O)N[C@@H]2C(=O)N3C(C(=O)[O-])=C(C[N+]4(CCNC(=O)C[C@@H](N)CC(=O)O)CCCC4)CS[C@H]23)c(Cl)s1.[Na+] (some centres unmarked) [Compound I-30] | – | – | – | – | –
10 | 0.25 | 0.25 | 0.5 | 1 | NCC[N+]1(CC2=C(C(=O)[O-])N3C(=O)[C@@H](NC(=O)/C(=N\OC(C[C@H](NC(=O)c4ccc(O)c(O)c4Cl)C(=O)[O-])C(=O)O)c4csc(N)n4)[C@H]3SC2)CCCC1.[Na+] (some centres unmarked) [Compound I-31] | – | – | – | – | –
11 | 0.5 | 1 | 0.25 | 2 | Nc1nc(/C(=N/OC(C[C@H](NC(=O)c2ccc(O)c(O)c2Cl)C(=O)[O-])C(=O)[O-])C(=O)N[C@@H]2C(=O)N3C(C(=O)[O-])=C(C[N+]4(CCNC(=O)CC[C@H](N)C(=O)O)CCCC4)CS[C@H]23)cs1.[Na+].[Na+] (some centres unmarked) [Compound I-32] | – | – | – | – | –

Row | SMILES | MIC [1, 5] [mg/L] | MIC [2, 6] [mg/L] | MIC (P. aeruginosa SR24; [7]) [mg/L] | MIC [3, 8] [mg/L] | MIC [4] [mg/L] | MIC ([1]; ATCCBAA196, read-out: minimum growth inhibition concentration (MIC)) [mg/L] | MIC ([2]; ATCC700603, read-out: minimum growth inhibition concentration (MIC)) [mg/L] | MIC (P. aeruginosa SR24; SR24, read-out: minimum growth inhibition concentration (MIC)) [mg/L] | MIC [3] [mg/L]
12 | Nc1nc(/C(=N/OC(CNC(=O)c2ccc(O)c(O)c2Cl)C(=O)[O-])C(=O)N[C@@H]2C(=O)N3C(C(=O)[O-])=C(C[N+]45CCC(CC4)CC5)CS[C@H]23)ns1.[Na+] (some centres unmarked) [Compound I-17] | 4 | 8 | 0.25 | – | – | – | – | – | –
13 | CC(C)(O/N=C(\C(=O)N[C@@H]1C(=O)N2C(C(=O)[O-])=C(C[N@+]3(C)[C@@H]4CC[C@H]3C[C@@H](N)C4)CS[C@H]12)c1ccc(O)c(O)c1Cl)C(=O)O [Compound I-20] | 2 (≈ 3.07 µM) | – | – | – | 4 (≈ 6.13 µM) | – | – | – | –
